Assay results from PubChem BioAssay AID248 (DTP/NCI, 2004).
Several values for one entry are separate records, joined by “and”; a condition that tells them apart may be missing. Identical values can stand only once. Toxic doses and inconclusive results are not listed. No stated cut-off is given here; in the data, active means T/C of 150% or more; inactive means T/C below 125%.

System: L1210 leukemia ip in BDF1 mice, survival T/C
Experiment: NCI In Vivo Anticancer Drug Screen. Data for tumor model L1210 Leukemia (intraperitoneal) in B6D2F1 (BDF1) mice
Settings: endpoint: mean survival time, higher = longer survival
Procedure, shortened: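 Read-out is survival time, reported as the treated-group measurement over the vehicle-control measurement.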

[1] = dose: 50.0 mg/kg/injection, schedule: Q01DX009 (ip), vehicle: Klucel (hydroxypropylcellulose) (HPC)
[2] = dose: 100.0 mg/kg/injection, schedule: Q01DX009 (ip), vehicle: Klucel (hydroxypropylcellulose) (HPC)
[3] = dose: 100.0 mg/kg/injection, schedule: Q04DX003 (ip), vehicle: saline with Tween-80
[4] = dose: 200.0 mg/kg/injection, schedule: Q01DX009 (ip), vehicle: Klucel (hydroxypropylcellulose) (HPC)
[5] = dose: 200.0 mg/kg/injection, schedule: Q04DX003 (ip), vehicle: saline with Tween-80
[6] = dose: 400.0 mg/kg/injection, schedule: Q01DX009 (ip), vehicle: Klucel (hydroxypropylcellulose) (HPC)
[7] = dose: 400.0 mg/kg/injection, schedule: Q04DX003 (ip), vehicle: saline with Tween-80
[8] = dose: 100.0 mg/kg/injection, schedule: Q01DX001 (ip), vehicle: carboxymethylcellulose (CMC)
[9] = dose: 200.0 mg/kg/injection, schedule: Q01DX001 (ip), vehicle: carboxymethylcellulose (CMC)
[10] = dose: 400.0 mg/kg/injection, schedule: Q01DX001 (ip), vehicle: carboxymethylcellulose (CMC)
[11] = dose: 25.0 mg/kg/injection, schedule: Q01DX009 (ip), vehicle: saline
[12] = dose: 50.0 mg/kg/injection, schedule: Q01DX009 (ip), vehicle: saline
[13] = dose: 100.0 mg/kg/injection, schedule: Q01DX009 (ip), vehicle: saline
[14] = dose: 100.0 mg/kg/injection, schedule: Q04DX003 (ip), vehicle: saline
[15] = dose: 100.0 mg/kg/injection, schedule: Q04DX003 (ip), vehicle: Klucel (hydroxypropylcellulose) (HPC)
[16] = dose: 200.0 mg/kg/injection, schedule: Q04DX003 (ip), vehicle: Klucel (hydroxypropylcellulose) (HPC)
[17] = dose: 400.0 mg/kg/injection, schedule: Q04DX003 (ip), vehicle: Klucel (hydroxypropylcellulose) (HPC)

Measured: T/C

c1ccc(CSCc2ccccc2)cc1
inactive: [1] 97 % of control | [2] 105 % of control | dose: 100.0 mg/kg/injection, schedule: Q04DX002 (ip), vehicle: Klucel (hydroxypropylcellulose) (HPC) 105 % of control | [3] 96 % of control | [4] 102 % of control and 86 % of control | dose: 200.0 mg/kg/injection, schedule: Q04DX002 (ip), vehicle: Klucel (hydroxypropylcellulose) (HPC) 105 % of control | [5] 104 % of control | [6] 86 % of control | dose: 400.0 mg/kg/injection, schedule: Q04DX002 (ip), vehicle: Klucel (hydroxypropylcellulose) (HPC) 105 % of control | [7] 96 % of control

CC(C)(C)OC(=O)CSC#N
inactive: dose: 5.0 mg/kg/injection, schedule: Q01DX001 (ip), vehicle: saline 101 % of control | dose: 10.0 mg/kg/injection, schedule: Q01DX001 (ip), vehicle: saline 95 % of control | dose: 20.0 mg/kg/injection, schedule: Q01DX001 (ip), vehicle: saline 101 % of control

O=C1c2cccc3cccc(c23)C1(Br)Br
inactive: dose: 75.0 mg/kg/injection, schedule: Q01DX001 (ip), vehicle: other 101 % of control | dose: 150.0 mg/kg/injection, schedule: Q01DX001 (ip), vehicle: other 104 % of control

CC(=O)Nc1nnc(Sc2ccc([N+](=O)[O-])cc2[N+](=O)[O-])s1
inactive: [2] 95 % of control | [4] 95 % of control | [6] 100 % of control

Cc1ccc(C)c(NC(=O)N(C2CCCCC2)C2CCCCC2)c1
inactive: dose: 100.0 mg/kg/injection, schedule: Q01DX009 (ip), vehicle: saline with Tween-80 112 % of control | [3] 100 % of control | dose: 200.0 mg/kg/injection, schedule: Q01DX009 (ip), vehicle: saline with Tween-80 101 % of control | [5] 94 % of control | dose: 400.0 mg/kg/injection, schedule: Q01DX009 (ip), vehicle: saline with Tween-80 107 % of control | [7] 97 % of control

COc1ccc(/C=C2/c3c(c(-c4ccccc4)c4ccccc4c3-c3ccccc3)S2(=O)=O)cc1
inactive: dose: 50.0 mg/kg/injection, schedule: Q01DX001 (ip), vehicle: carboxymethylcellulose (CMC) 97 % of control | [8] 95 % of control | [9] 95 % of control | [10] 86 % of control

CSc1nc(NC(=O)CCl)cc(NC(=O)CCl)n1
inactive: dose: 12.5 mg/kg/injection, schedule: Q01DX005 (ip), vehicle: saline 105 % of control | dose: 25.0 mg/kg/injection, schedule: Q01DX005 (ip), vehicle: saline 112 % of control

Clc1ccccc1OCCNC1CC1
inactive: dose: 6.25 mg/kg/injection, schedule: Q01DX009 (ip), vehicle: saline 101 % of control | dose: 12.5 mg/kg/injection, schedule: Q01DX009 (ip), vehicle: saline 105 % of control | [11] 97 % of control | dose: 25.0 mg/kg/injection, schedule: Q04DX003 (ip), vehicle: saline 102 % of control | [12] 103 % of control | dose: 50.0 mg/kg/injection, schedule: Q04DX003 (ip), vehicle: saline 100 % of control | [13] 105 % of control | [14] 102 % of control

Cc1ncc2c(=O)n(-c3ccc(C(=O)O)cc3)[nH]c2n1
inactive: dose: 75.0 mg/kg/injection, schedule: Q04DX003 (ip), vehicle: Klucel (hydroxypropylcellulose) (HPC) 103 % of control | dose: 100.0 mg/kg/injection, schedule: Q01DX001 (ip), vehicle: Klucel (hydroxypropylcellulose) (HPC) 94 % of control | dose: 150.0 mg/kg/injection, schedule: Q04DX003 (ip), vehicle: Klucel (hydroxypropylcellulose) (HPC) 106 % of control | dose: 200.0 mg/kg/injection, schedule: Q01DX001 (ip), vehicle: Klucel (hydroxypropylcellulose) (HPC) 97 % of control | dose: 300.0 mg/kg/injection, schedule: Q04DX003 (ip), vehicle: Klucel (hydroxypropylcellulose) (HPC) 90 % of control | dose: 400.0 mg/kg/injection, schedule: Q01DX001 (ip), vehicle: Klucel (hydroxypropylcellulose) (HPC) 110 % of control

CNS(=O)(=O)c1ccc(NC(=O)CI)cc1
inactive: dose: 3.0 mg/kg/injection, schedule: Q01DX009 (ip), vehicle: Klucel (hydroxypropylcellulose) (HPC) 112 % of control | dose: 6.0 mg/kg/injection, schedule: Q01DX009 (ip), vehicle: Klucel (hydroxypropylcellulose) (HPC) 96 % of control | dose: 12.0 mg/kg/injection, schedule: Q01DX009 (ip), vehicle: Klucel (hydroxypropylcellulose) (HPC) 108 % of control | dose: 12.5 mg/kg/injection, schedule: Q01DX001 (ip), vehicle: other 96 % of control | dose: 12.5 mg/kg/injection, schedule: Q04DX003 (ip), vehicle: other 93 % of control | dose: 25.0 mg/kg/injection, schedule: Q01DX001 (ip), vehicle: other 96 % of control | dose: 50.0 mg/kg/injection, schedule: Q01DX001 (ip), vehicle: other 88 % of control

CC(=O)CSc1ccccn1
inactive: [8] 102 % of control | [9] 94 % of control | [10] 96 % of control

CCCCCC(Oc1ccc(Cl)cc1)C(=O)O (centres undefined)
inactive: [15] 104 % of control | [16] 98 % of control

COc1cc2ccncc2cc1OCc1ccccc1
inactive: [11] 104 % of control | [12] 96 % of control | [13] 102 % of control

CN(Cc1ccccc1)Cc1cc(CO)ccc1O
inactive: [8] 103 % of control | [9] 105 % of control

CCCC(CCC)NC(=O)c1ccccc1
inactive: dose: 25.0 mg/kg/injection, schedule: Q04DX002 (ip), vehicle: saline with Tween-80 104 % of control | dose: 50.0 mg/kg/injection, schedule: Q04DX002 (ip), vehicle: saline with Tween-80 95 % of control | dose: 100.0 mg/kg/injection, schedule: Q04DX002 (ip), vehicle: saline with Tween-80 95 % of control

CCCCc1ccc(-n2cnc3c(=O)[nH]c(N)nc32)cc1
inactive: [3] 88 % of control | [5] 97 % of control

O=Cc1ccc(N2CCOCC2)cc1
inactive: [1] 97 % of control | [2] 97 % of control | [4] 106 % of control | [6] 97 % of control

NC1CCCCC1
inactive: [14] 109 % of control | dose: 200.0 mg/kg/injection, schedule: Q04DX003 (ip), vehicle: saline 102 % of control | dose: 400.0 mg/kg/injection, schedule: Q04DX003 (ip), vehicle: saline 100 % of control

Nc1ccnnc1
inactive: [12] 106 % of control | [13] 101 % of control | dose: 200.0 mg/kg/injection, schedule: Q01DX009 (ip), vehicle: saline 104 % of control

COc1ccccc1C(O)(c1ccccc1)c1ccccc1OC
inactive: [15] 92 % of control | [16] 98 % of control | [17] 97 % of control

Cc1cc(N(C)C)nc(N(C)C)n1
inactive: dose: 100.0 mg/kg/injection, schedule: Q01DX001 (ip), vehicle: other 93 % of control | dose: 100.0 mg/kg/injection, schedule: Q04DX003 (ip), vehicle: other 103 % of control | dose: 200.0 mg/kg/injection, schedule: Q01DX001 (ip), vehicle: other 101 % of control | dose: 200.0 mg/kg/injection, schedule: Q04DX003 (ip), vehicle: other 97 % of control | dose: 250.0 mg/kg/injection, schedule: Q01DX Z (ip), vehicle: methylcellulose (MC) 100 % of control | dose: 375.0 mg/kg/injection, schedule: Q01DX Z (ip), vehicle: methylcellulose (MC) 94 % of control | dose: 400.0 mg/kg/injection, schedule: Q01DX001 (ip), vehicle: other 91 % of control | dose: 400.0 mg/kg/injection, schedule: Q04DX003 (ip), vehicle: other 102 % of control | dose: 500.0 mg/kg/injection, schedule: Q01DX Z (ip), vehicle: methylcellulose (MC) 96 % of control

NCC1OC(n2ccc(=O)[nH]c2=O)CC1O (centres undefined)
inactive: dose: 25.0 mg/kg/injection, schedule: Q04DX002 (ip), vehicle: saline 93 % of control | dose: 50.0 mg/kg/injection, schedule: Q04DX002 (ip), vehicle: saline 101 % of control | dose: 100.0 mg/kg/injection, schedule: Q04DX002 (ip), vehicle: saline 108 % of control

CCOC(=O)/C(O)=C/c1nc2ccccc2nc1C
inactive: [15] 105 % of control | [16] 96 % of control | [17] 99 % of control
